This is an account of results in PubChem BioAssay (NCI).

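Five compound concentrations were applied to cells in 96-well plates for 48 hours; endpoints were derived by simple linear interpolation of the resulting dose-response curve. The concentration for full growth arrest is given as TGI.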

Some test systems named below: RPMI-8226 leukemia; EKVX NSCLC; SF-268 CNS; BT-549 breast; HOP-62 NSCLC; SF-539 CNS; U251 CNS; CAKI-1 renal; HCT-116 colon; UACC-257 melanoma.
Experiment in all cases: NCI anticancer screen, dose series, 48 h

As to `O=C(O)c1ccn(-c2cccc(-n3ccc(C(=O)O)n3)n2)n1`, the TGI in the test on RPMI-8226 leukemia, with EKVX NSCLC, in the test with SF-268 CNS, with BT-549 breast, in the test on HOP-62 NSCLC and in the test with SF-539 CNS was > 100 µM each time. The TGI in the test on U251 CNS, in the test on CAKI-1 renal, with HCT-116 colon and in the test with UACC-257 melanoma was > 100 µM in each case.
Consider `CCOc1cc(C2CC(c3ccc(NS(=O)(=O)c4cc([N+](=O)[O-])ccc4C)cc3)=NN2c2ccc([N+](=O)[O-])cc2[N+](=O)[O-])ccc1O` (stereo not given), for which the TGI is > 100 µM in the test with RPMI-8226 leukemia; 22 µM in the test with EKVX NSCLC; 43.9 µM in the test with SF-268 CNS; 38.4 µM in the test on BT-549 breast; 27.3 µM in the test on HOP-62 NSCLC; 25.5 µM in the test on SF-539 CNS. In addition, the TGI with U251 CNS was found to be 29.2 µM; in the test with CAKI-1 renal it was 56.5 µM; in the test with HCT-116 colon, 26.1 µM; in the test with UACC-257 melanoma, 59.5 µM.
Regarding `N#Cc1ccccc1-c1nc2c3c(c(N)ccc3n1)C(=O)c1ccccc1-2`, the TGI with RPMI-8226 leukemia, in the test with EKVX NSCLC, with SF-268 CNS, with BT-549 breast, in the test with HOP-62 NSCLC and in the test with SF-539 CNS was > 100 µM throughout. The TGI in the test with U251 CNS is > 100 µM; with CAKI-1 renal it was 43.6 µM; in the test on HCT-116 colon, > 100 µM; with UACC-257 melanoma, > 100 µM.
As to `COC(=O)c1c(O)ccc2c1c1c(n2Cc2cccc(C)c2)C(=O)c2ccccc2C1=O`, the TGI in the test on RPMI-8226 leukemia was 16.9 µM; in the test on EKVX NSCLC, 37.9 µM; with SF-268 CNS, 25.9 µM; with BT-549 breast it was 29 µM; in the test with HOP-62 NSCLC it was 31.3 µM; with SF-539 CNS, 28.2 µM. Besides, the TGI was determined as 24.4 µM in the test with U251 CNS, 25.7 µM in the test with CAKI-1 renal, 20.2 µM in the test on HCT-116 colon and 31.2 µM in the test on UACC-257 melanoma.
Regarding `CSC1=N/C(=C\c2ccco2)C(=O)N1CN1CCOCC1`, the TGI with RPMI-8226 leukemia was > 80.4 µM; with EKVX NSCLC, > 100 µM; in the test on SF-268 CNS, > 78.3 µM; in the test with BT-549 breast, 41.2 µM; in the test on HOP-62 NSCLC it was > 100 µM; with SF-539 CNS, 35.3 µM. The TGI in the test on U251 CNS was > 100 µM; in the test on CAKI-1 renal, > 100 µM; in the test with HCT-116 colon it was > 66.9 µM; with UACC-257 melanoma, > 100 µM.
Take `COc1ccc(-c2c(C#N)c(S)n(NS(=O)(=O)c3ccc(C)cc3)c(=O)c2C#N)cc1`: the TGI is 15.4 µM with RPMI-8226 leukemia; 68.3 µM with EKVX NSCLC; 88 µM with SF-268 CNS; 32.5 µM in the test with BT-549 breast; > 100 µM with HOP-62 NSCLC; 29.8 µM in the test on SF-539 CNS. In addition, the TGI is > 100 µM in the test on U251 CNS, > 100 µM with CAKI-1 renal, 28 µM with HCT-116 colon and > 100 µM with UACC-257 melanoma.
On to `COC(=O)C(Cc1ccccc1)NP(=O)(O)OCC1OC(n2cc(F)c(=O)[nH]c2=O)CC1O` (stereo not given), for which the TGI is > 100 µM with RPMI-8226 leukemia; > 100 µM in the test on EKVX NSCLC; > 100 µM in the test with SF-268 CNS; > 100 µM with BT-549 breast; > 100 µM in the test with HOP-62 NSCLC; 63.9 µM with SF-539 CNS. In addition, the TGI in the test with U251 CNS, with CAKI-1 renal, with HCT-116 colon and with UACC-257 melanoma was > 100 µM in each case.
With `COc1ccccc1NC(=O)CC(=O)N1N=C(C)C(N=Nc2ccc(C(=O)O)cc2)C1=O` (stereo not given), the TGI in the test with RPMI-8226 leukemia, in the test with EKVX NSCLC, with SF-268 CNS, in the test with BT-549 breast, in the test with HOP-62 NSCLC and in the test on SF-539 CNS was > 100 µM each time. Also, the TGI in the test with U251 CNS, in the test with CAKI-1 renal, in the test on HCT-116 colon and in the test on UACC-257 melanoma was > 100 µM in each case.
For `CC(=O)Oc1c2oc3ccc(Cl)cc3c(=O)c2c(O)c2ccsc12`, the TGI in the test with RPMI-8226 leukemia, with EKVX NSCLC, in the test on SF-268 CNS, in the test on BT-549 breast, in the test on HOP-62 NSCLC and with SF-539 CNS was > 100 µM in each case. Further, the TGI in the test with U251 CNS, in the test on CAKI-1 renal, in the test on HCT-116 colon and in the test on UACC-257 melanoma was > 100 µM in each case.
Consider `O=c1oc2ccccc2cc1-c1cn2cc(Cl)ccc2n1`, for which the TGI with RPMI-8226 leukemia was 59.7 µM; in the test on EKVX NSCLC it was > 100 µM; with SF-268 CNS, 16.7 µM; in the test on BT-549 breast, 21.9 µM; with HOP-62 NSCLC, 6.22 µM; in the test with SF-539 CNS, 22.2 µM. Moreover, the TGI in the test with U251 CNS is 13.9 µM; with CAKI-1 renal, 3.28 µM; in the test on HCT-116 colon it was 14.7 µM; with UACC-257 melanoma, > 45.9 µM.
As for `O=c1c2cc(I)ccc2nc(-c2cccs2)n1-c1ccc(O)cc1`, the TGI in the test on RPMI-8226 leukemia is 18.3 µM; with EKVX NSCLC it was 33.4 µM; in the test on SF-268 CNS, 32.8 µM; in the test with BT-549 breast, 27.9 µM; in the test on HOP-62 NSCLC, 32.4 µM; with SF-539 CNS it was 14.5 µM. The TGI came out at 48.5 µM in the test on U251 CNS, 32.9 µM with CAKI-1 renal, 27.4 µM with HCT-116 colon and 22.1 µM with UACC-257 melanoma.
